Article PMC9424906 (Frontiers in Pharmacology, 2022)

Experiments:
BCRP = molecular target: T1, BCRP (Homo sapiens, UniProt Q9UNQ0); assay: Bidirectional transport in MDCK-BCRP monolayers; assay type: in vitro ADME; conditions: dog, MDCK-BCRP, 5 µM
T1 construct: host or cells: MDCK (BCRP-MDCK)
T1 sequence (Q9UNQ0 1-655): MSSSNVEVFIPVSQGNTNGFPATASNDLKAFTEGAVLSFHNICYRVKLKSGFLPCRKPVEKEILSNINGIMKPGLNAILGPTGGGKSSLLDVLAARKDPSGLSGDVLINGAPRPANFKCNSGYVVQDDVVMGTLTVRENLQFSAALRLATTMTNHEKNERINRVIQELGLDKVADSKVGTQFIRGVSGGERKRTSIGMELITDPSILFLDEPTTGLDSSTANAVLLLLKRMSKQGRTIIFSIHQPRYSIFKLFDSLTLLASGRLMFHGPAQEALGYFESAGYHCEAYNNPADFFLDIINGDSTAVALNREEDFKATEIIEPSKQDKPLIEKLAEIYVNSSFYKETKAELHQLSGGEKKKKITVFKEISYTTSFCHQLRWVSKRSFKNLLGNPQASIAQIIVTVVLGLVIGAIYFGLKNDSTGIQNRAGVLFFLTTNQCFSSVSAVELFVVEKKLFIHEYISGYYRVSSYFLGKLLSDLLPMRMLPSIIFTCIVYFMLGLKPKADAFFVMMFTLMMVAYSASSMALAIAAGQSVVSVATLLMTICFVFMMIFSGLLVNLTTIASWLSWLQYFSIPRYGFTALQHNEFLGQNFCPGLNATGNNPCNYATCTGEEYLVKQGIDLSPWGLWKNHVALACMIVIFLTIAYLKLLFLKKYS
Method: Caco-2 (American Type Culture Collection), MDR1-MDCK (NIH), and BCRP-MDCK (transfected by Absorption Systems) cell monolayers were grown to confluence on collagen-coated, microporous membranes in 12-well assay plates. Caco-2 cells were cultured for 27 days, MDCK-MDR1 and MDCK-BCRP cells were cultured for 8 days prior to experiments. […] The experiment was carried out in Hanks’ balanced salt solution (HBSS) containing 10 mM HEPES and 15 mM glucose at pH 7.4. HBSS in the receiver chamber also contained 1% bovine serum albumin. Cells were first pre-incubated for 0.5 h in HBSS with or without the specific inhibitor (1 µM valspodar or 0.5 µM Ko143 for MDR1 and BCRP, respectively). […] Cell monolayers were dosed on the apical side (A to B) or basolateral side (B to A) and incubated at 37°C with 5% CO2 in a humidified incubator. Samples were taken from the donor and receiver chambers at 2 h. Each experiment was performed in duplicate. All samples were assayed by LC-MS/MS. The apparent permeability (Papp) and percent recovery were calculated as described previously ([Katoh et al., 2006]; [Xia et al., 2006]; [Li et al., 2008]).

[1] = Pharmacokinetics in Cynomolgus monkeys; assay type: in vivo; conditions: male, cynomolgus monkey
Method: Adult male C57BL/6 mice and Sprague Dawley rats were purchased from Charles River Laboratory (Wilmington, MA). PK studies for mice and rats were conducted at NIH animal facility (Bethesda, MD). In-life dog and monkey PK studies were conducted at Absorption System (San Diego, CA) and Frontage Labs (Concord, OH), respectively. Dogs and monkeys were fasted overnight prior to dose administrations. All experimental procedures were reviewed and approved by the Animal Care and Use Committee (ACUC) of the NIH Division of Veterinary Resources (DVR) or CRO labs for in-life studies.
The dosing volumes were 2 mL/kg for IV and 5 mL/kg for PO. Blood samples were obtained from each monkey up to 48 h after IV and PO administration. Urine samples were collected over 48 h for IV group.
Blood samples from all groups and species were collected in K2EDTA tubes and stored on wet ice pending processing. Blood was centrifuged at 2200 g at 4°C for 10 min to isolate plasma. All samples were stored at -80°C until analysis.
Phoenix WinNonlin, version 8.1 (Certara, St. Louis, MO), was used to perform PK analysis with the non-compartmental approach (Models 200 and 201 for PO and IV datasets). The area under the plasma concentration vs. time curve (AUC) was calculated using the linear trapezoidal method. The terminal rate constant (λ) was obtained from the slope of at least three data points of the apparent terminal phase of the log-linear plasma concentration vs. time curve when available. AUC0–∞ was estimated as the sum of the AUC0–t (where t is the time of the last measurable concentration) and Ct/λ. The apparent terminal half-life (t½) was calculated as 0.693/λ. Bioavailability (F) was calculated using ratios of dose normalized AUC (AUC/Dose) obtained from PO and IV PK studies.

OCT2 = conditions: cited from earlier work
[2] = pH 7.4, with Ko143 0.5 µM, 0.5 µM Ko143

**Q.** With `N#C[C@@]1(c2ccc3c(N)ncnn23)O[C@H](CO)[C@@H](O)[C@H]1O` [GS-441524] as the molecule, how does the Papp A→B at 2 h, 5 µM (BCRP; [2]) read?
**A.** The Papp A→B at 2 h, 5 µM was under 0.198 ×10⁻⁶ cm/s.

**Q.** And the Papp B→A at 2 h, 5 µM (BCRP; [2])?
**A.** Its Papp B→A at 2 h, 5 µM is under 0.281 ×10⁻⁶ cm/s.

**Q.** What about the Papp A→B at 2 h, 5 µM (BCRP; pH 7.4, no inhibitor) of the same molecule?
**A.** Its Papp A→B at 2 h, 5 µM is under 0.197 ×10⁻⁶ cm/s.

**Q.** What about the Papp B→A at 2 h, 5 µM (BCRP; pH 7.4, no inhibitor) of the same molecule?
**A.** The Papp B→A at 2 h, 5 µM was 0.385 ×10⁻⁶ cm/s.

**Q.** And the Vd ([1]; in vivo, iv, 2 mg/kg)?
**A.** Its Vd is 1.1 ± 0.04 L/kg.

**Q.** And the clearance ([1]; in vivo, iv, 2 mg/kg)?
**A.** The clearance was 9.5 ± 1 mL/min/kg.

**Q.** What about the AUC(0-inf) ([1]; in vivo, po, 5 mg/kg) of the same molecule?
**A.** Its AUC(0-inf) is 734 ± 138 ng·h/mL.

**Q.** And the Cmax ([1]; in vivo, po, 5 mg/kg)?
**A.** Its Cmax is 59.4 ± 18.1 ng/mL.

**Q.** What about the Tmax ([1]; in vivo, po, 5 mg/kg) of the same molecule?
**A.** The Tmax was 2 h.

**Q.** What about the bioavailability ([1]; in vivo, po, 5 mg/kg) of the same molecule?
**A.** The bioavailability was 8.3 ± 1.6%.

**Q.** What about the half-life ([1]; plasma, Monkey, PO 5 mg/kg) of the same molecule?
**A.** The half-life was 7.7 ± 1.4 h.

**Q.** And the “Substrate of OCT2” value (OCT2)?
**A.** The value was “not a substrate”.
